Data as given in patent US8921376B2, “Pyrrolopyridines useful as inhibitors of protein kinase” (Vertex Pharmaceuticals Incorporated, priority 2005, dated 2014).

Legend:
Assay type in all cases: biochemical
[1] = molecular target: ROCK I (Homo sapiens, UniProt Q13464); assay: ROCK-I inhibition assay (radioactive enzyme assay, MBP substrate)
Summary of the method: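 Human ROCK at 5 nM phosphorylated 27 μM myelin basic protein with 13 μM [γ-33P]ATP (final) in HEPES pH 7.5, MgCl2, NaCl, DTT and 1.5% DMSO. Reactions ran 2 h at room temperature before TCA quench and filter-plate scintillation counting. After background subtraction, data were fit to give Ki(app).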

[2] = molecular target: JAK2 (Homo sapiens, UniProt O60674); assay: JAK2 inhibition assay (as Example 3 with JAK-2 enzyme)
Summary of the method: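 In HEPES pH 7.4 buffer with 10 mM MgCl2, 1 mM DTT, 25 mM NaCl and 0.01% BSA, JAK2 enzyme phosphorylated poly(Glu)4Tyr (final 15 μM) using 33P-ATP (final 12 μM) for 20 min at room temperature (25 °C). Reactions stopped with TCA; incorporated 33P measured by scintillation after filtration.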

[3] = molecular target: T1, JAK3 (Homo sapiens, UniProt P52333); assay: JAK3 inhibition assay (33P incorporation into poly(Glu)4Tyr)
T1 sequence (P52333 1-1124): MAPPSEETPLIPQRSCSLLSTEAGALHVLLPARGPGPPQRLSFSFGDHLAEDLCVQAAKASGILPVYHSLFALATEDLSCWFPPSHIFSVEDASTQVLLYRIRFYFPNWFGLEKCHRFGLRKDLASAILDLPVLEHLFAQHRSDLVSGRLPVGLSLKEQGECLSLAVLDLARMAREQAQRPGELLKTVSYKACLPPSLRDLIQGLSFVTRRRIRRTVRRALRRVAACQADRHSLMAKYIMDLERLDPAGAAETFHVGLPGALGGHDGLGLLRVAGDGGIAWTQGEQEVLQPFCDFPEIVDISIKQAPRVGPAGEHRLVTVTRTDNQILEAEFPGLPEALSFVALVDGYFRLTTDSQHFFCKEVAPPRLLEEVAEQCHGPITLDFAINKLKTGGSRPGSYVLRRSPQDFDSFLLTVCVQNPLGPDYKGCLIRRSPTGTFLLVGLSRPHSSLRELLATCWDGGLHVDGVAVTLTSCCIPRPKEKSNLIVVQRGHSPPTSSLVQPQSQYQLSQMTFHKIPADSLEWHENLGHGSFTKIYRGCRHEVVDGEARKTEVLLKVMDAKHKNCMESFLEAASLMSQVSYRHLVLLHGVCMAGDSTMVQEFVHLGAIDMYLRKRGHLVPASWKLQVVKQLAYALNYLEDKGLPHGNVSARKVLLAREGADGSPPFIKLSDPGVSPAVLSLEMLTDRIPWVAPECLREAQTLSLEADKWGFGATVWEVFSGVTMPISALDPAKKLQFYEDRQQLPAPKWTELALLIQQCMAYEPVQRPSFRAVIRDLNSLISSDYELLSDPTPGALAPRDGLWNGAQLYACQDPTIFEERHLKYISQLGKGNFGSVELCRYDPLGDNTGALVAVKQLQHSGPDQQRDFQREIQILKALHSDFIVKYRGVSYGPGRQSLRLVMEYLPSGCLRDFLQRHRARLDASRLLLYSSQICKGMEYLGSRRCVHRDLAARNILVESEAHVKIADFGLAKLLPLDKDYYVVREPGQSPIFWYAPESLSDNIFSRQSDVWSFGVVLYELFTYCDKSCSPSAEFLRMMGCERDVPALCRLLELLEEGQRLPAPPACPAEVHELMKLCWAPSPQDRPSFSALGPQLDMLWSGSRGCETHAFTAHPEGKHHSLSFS
Summary of the method: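 After TCA quench and filter harvest, scintillation counting of 33P measured phosphorylation of poly(Glu)4Tyr (1 μM) by 1 nM JAK3. The 20-min, 25° C. reaction contained 5 μM ATP (200 μCi/μmole) in pH 7.4 HEPES buffer with 10 mM MgCl2.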

[4] = Table 6, enzyme inhibition data (Ki)
[5] = enzyme inhibition, Ki(app), Table 5

ROCK I, sequence (Q13464 whole entry): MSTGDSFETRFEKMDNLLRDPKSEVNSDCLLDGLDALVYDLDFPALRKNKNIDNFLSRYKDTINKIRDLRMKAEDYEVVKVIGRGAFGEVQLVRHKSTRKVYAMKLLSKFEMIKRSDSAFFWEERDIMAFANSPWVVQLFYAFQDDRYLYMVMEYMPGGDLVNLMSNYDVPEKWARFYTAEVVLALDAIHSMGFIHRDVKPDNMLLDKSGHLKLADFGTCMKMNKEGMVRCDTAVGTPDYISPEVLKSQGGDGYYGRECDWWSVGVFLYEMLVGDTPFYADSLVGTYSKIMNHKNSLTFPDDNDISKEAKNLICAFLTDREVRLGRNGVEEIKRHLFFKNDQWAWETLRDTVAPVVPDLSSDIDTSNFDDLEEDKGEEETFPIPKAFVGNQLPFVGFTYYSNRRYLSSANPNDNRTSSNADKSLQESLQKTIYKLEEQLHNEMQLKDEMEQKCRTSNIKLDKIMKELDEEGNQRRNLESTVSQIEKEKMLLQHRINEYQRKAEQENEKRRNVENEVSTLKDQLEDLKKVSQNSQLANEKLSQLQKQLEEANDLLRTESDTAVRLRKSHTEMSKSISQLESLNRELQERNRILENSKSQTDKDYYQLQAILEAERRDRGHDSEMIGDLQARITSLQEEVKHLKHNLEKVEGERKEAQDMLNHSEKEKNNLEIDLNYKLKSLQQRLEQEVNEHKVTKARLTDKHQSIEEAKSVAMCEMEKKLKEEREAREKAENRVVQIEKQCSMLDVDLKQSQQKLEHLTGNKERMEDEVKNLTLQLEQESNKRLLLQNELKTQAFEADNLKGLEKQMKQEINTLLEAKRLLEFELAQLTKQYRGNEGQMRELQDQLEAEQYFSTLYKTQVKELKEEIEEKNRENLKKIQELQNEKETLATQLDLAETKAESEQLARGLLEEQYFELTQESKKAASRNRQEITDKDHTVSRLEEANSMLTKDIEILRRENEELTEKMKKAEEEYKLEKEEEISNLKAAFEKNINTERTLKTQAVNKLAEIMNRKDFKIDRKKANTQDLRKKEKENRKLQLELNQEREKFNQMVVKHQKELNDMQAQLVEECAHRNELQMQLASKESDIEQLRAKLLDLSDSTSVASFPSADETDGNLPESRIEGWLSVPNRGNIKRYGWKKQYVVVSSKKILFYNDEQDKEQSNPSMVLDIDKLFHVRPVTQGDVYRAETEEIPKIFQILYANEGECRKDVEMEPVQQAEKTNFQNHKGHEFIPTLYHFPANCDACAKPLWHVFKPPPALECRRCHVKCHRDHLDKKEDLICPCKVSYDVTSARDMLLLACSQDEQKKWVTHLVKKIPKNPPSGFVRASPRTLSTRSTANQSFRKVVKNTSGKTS
JAK2, sequence (O60674 whole entry): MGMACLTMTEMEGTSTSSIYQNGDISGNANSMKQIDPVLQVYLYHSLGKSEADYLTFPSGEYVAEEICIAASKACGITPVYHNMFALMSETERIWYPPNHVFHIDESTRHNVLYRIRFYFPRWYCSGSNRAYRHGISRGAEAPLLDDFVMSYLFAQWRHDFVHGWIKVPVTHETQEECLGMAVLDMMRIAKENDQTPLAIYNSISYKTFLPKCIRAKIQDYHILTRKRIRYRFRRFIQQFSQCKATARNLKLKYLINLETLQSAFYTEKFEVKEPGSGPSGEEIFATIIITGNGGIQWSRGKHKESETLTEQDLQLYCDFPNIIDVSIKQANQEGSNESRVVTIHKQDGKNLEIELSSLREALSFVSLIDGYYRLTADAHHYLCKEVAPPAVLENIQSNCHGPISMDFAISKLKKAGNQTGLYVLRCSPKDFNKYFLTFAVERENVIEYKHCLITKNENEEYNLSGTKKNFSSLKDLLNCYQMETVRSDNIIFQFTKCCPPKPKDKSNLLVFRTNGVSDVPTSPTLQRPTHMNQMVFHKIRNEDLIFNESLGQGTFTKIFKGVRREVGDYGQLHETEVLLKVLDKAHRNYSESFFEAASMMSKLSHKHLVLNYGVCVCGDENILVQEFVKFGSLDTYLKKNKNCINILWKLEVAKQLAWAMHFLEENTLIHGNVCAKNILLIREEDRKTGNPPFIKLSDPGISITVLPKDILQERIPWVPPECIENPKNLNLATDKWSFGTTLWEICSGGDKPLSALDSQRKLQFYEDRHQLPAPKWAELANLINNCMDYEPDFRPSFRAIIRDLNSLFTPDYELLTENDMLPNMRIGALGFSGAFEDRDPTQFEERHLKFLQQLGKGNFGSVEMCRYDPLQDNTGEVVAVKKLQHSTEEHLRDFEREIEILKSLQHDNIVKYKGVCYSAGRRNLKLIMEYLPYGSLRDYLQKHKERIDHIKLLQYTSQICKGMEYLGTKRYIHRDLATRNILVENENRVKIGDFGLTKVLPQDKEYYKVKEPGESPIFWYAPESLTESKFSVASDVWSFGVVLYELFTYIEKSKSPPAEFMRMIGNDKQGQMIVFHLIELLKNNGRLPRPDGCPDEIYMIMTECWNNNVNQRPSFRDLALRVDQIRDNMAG

| Ki [1, 4] | Ki [2, 4] | Ki [3, 4] | Ki [1, 5] | Ki ([2]; enzyme inhibition, Table 5) | Ki ([3]; enzyme inhibition, Table 5) | Structure (SMILES) |
| --- | --- | --- | --- | --- | --- | --- |
| 500 to 5000 nM | < 500 nM | < 500 nM |  |  |  | O=S(=O)(C1CC1)N1CCCC(Nc2c(Cl)cnc3[nH]ccc23)C1 (stereo not drawn) [compound 181] |
| 500 to 5000 nM | < 500 nM | < 500 nM |  |  |  | O=C(c1cc(-c2c(Cl)cnc3[nH]ccc23)c[nH]1)N1CCCC1C(F)(F)F (stereo not drawn) [compound 358] |
| > 4000 nM | 500 to 5000 nM | 500 to 5000 nM |  |  |  | CCOC(=O)C1CCN(C(=O)c2cc(-c3c(Cl)cnc4[nH]ccc34)c[nH]2)CC1 [compound 348] |
| 500 to 5000 nM | < 500 nM | < 500 nM |  |  |  | O=C(CC(F)(F)F)N1CCCC(Nc2c(Cl)cnc3[nH]ccc23)C1 (stereo not drawn) [compound 186] |
| < 500 nM | < 500 nM | < 500 nM |  |  |  | O=C(NC1CCC1)c1cc(-c2ccnc3[nH]ccc23)c[nH]1 [compound 287] |
|  |  |  | 500 to 5000 nM | 500 to 5000 nM | 500 to 5000 nM | c1cc(CN2CCOCC2)cc(-c2ccnc3[nH]ccc23)c1 [compound 88, 4-(3-Morpholin-4-ylmethyl-phenyl)-1H-pyrrolo[2,3-b]pyridine] |
| 500 to 5000 nM | 500 to 5000 nM | < 500 nM |  |  |  | Fc1ccc(-c2ccnc3[nH]ccc23)c(F)c1 [compound 207] |
| > 4000 nM | > 5000 nM | > 5000 nM |  |  |  | CC(=O)c1ccccc1-c1ccnc2[nH]ccc12 [compound 213] |
| > 4000 nM | 500 to 5000 nM | < 500 nM |  |  |  | O=C(NCC(F)(F)F)[C@@H]1CCCN1c1nc(-c2ccnc3[nH]ccc23)ncc1F [compound 199] |
|  |  |  | 500 to 5000 nM | 500 to 5000 nM | 500 to 5000 nM | CC(C)CNc1cccc(-c2c(Cl)cnc3[nH]ccc23)n1 [compound 78, 6-(5-Chloro-1H-pyrrolo[2,3-b]pyridin-4-yl)-N-isobutylpyridin-2-anine] |
| < 500 nM | < 500 nM | < 500 nM |  |  |  | CC[C@@H](C)NC(=O)c1cc(-c2ccnc3[nH]ccc23)c[nH]1 [compound 289] |
| < 500 nM | < 500 nM | < 500 nM |  |  |  | CCCN(CCC)C(=O)c1ccc(-c2ccnc3[nH]ccc23)s1 [compound 325] |
| > 4000 nM | > 5000 nM | 500 to 5000 nM |  |  |  | CCCOc1ccccc1-c1ccnc2[nH]ccc12 [compound 234] |
| > 4000 nM | > 5000 nM | > 5000 nM |  |  |  | c1ccc(Oc2ccccc2-c2ccnc3[nH]ccc23)cc1 [compound 240] |
|  |  |  | 500 to 5000 nM | 500 to 5000 nM | 500 to 5000 nM | COc1cc(-c2ccnc3[nH]ccc23)cc(OC)c1OC [compound 40, 4-(3,4,5-Trimethoxy-phenyl)-1H-pyrrolo[2,3-b]pyridine] |
| > 4000 nM | < 500 nM | < 500 nM |  |  |  | O=S(=O)(C1CC1)N1CC[C@@H](Nc2c(Cl)cnc3[nH]ccc23)C1 [compound 183] |
| < 500 nM | < 500 nM | < 500 nM |  |  |  | N#CCCN(Cc1cccnc1)C(=O)c1ccc(-c2ccnc3[nH]ccc23)s1 [compound 316] |
| < 500 nM | < 500 nM | 500 to 5000 nM |  |  |  | O=C(c1csc(-c2ccnc3[nH]ccc23)n1)N1CCCC1 [compound 418] |
| < 500 nM | < 500 nM | < 500 nM |  |  |  | CCN(CCO)C(=O)c1cc(-c2ccnc3[nH]ccc23)c[nH]1 [compound 361] |
| 500 to 5000 nM | < 500 nM | < 500 nM |  |  |  | O=C(c1cc(-c2c(Cl)cnc3[nH]ccc23)c[nH]1)N1CCC(CO)CC1 [compound 347] |
| < 500 nM | < 500 nM | < 500 nM |  |  |  | O=C(NCCC(F)(F)F)c1cc(-c2ccnc3[nH]ccc23)c[nH]1 [compound 293] |
| 500 to 5000 nM | 500 to 5000 nM | 500 to 5000 nM |  |  |  | CCOC(=O)C1CCN(C(=O)c2cc(-c3ccnc4[nH]ccc34)c[nH]2)CC1 [compound 364] |

| Ki [1, 4] | Ki [2, 4] | Ki [3, 4] | Ki [1, 5] | Ki ([2]; enzyme inhibition, Table 5) | Ki ([3]; enzyme inhibition, Table 5) | Structure (SMILES) |
| --- | --- | --- | --- | --- | --- | --- |
| 500 to 5000 nM | < 500 nM | < 500 nM |  |  |  | CCN(Cc1ccccc1)C(=O)c1cc(-c2c(F)cnc3[nH]ccc23)c[nH]1 [compound 395] |
|  |  |  | < 500 nM | 500 to 5000 nM | 500 to 5000 nM | Nc1cccc(-c2ccnc3[nH]ccc23)c1 [compound 114, 3-(1H-Pyrrolo[2,3-b]pyridin-4-yl)-phenylamine] |
| 500 to 5000 nM | 500 to 5000 nM | 500 to 5000 nM |  |  |  | O=C(c1csc(-c2ccnc3[nH]ccc23)n1)N1CCC(CO)CC1 [compound 411] |
|  |  |  | < 500 nM | < 500 nM | 500 to 5000 nM | Cc1cc(C)cc(-c2ccnc3[nH]ccc23)c1 [compound 112, 4-(3,5-Dimethyl-phenyl)-1H-pyrrolo[2,3-b]pyridine] |
| > 4000 nM | < 500 nM | < 500 nM |  |  |  | N#Cc1ccc(Nc2c(Cl)cnc3[nH]ccc23)c(Cl)c1 [compound 163] |
| < 500 nM | < 500 nM | < 500 nM |  |  |  | O=C(c1csc(-c2ccnc3[nH]ccc23)n1)N(CC1CC1)CC(F)(F)F [compound 406] |
| < 500 nM | 500 to 5000 nM | < 500 nM |  |  |  | Fc1ccccc1-c1ccnc2[nH]ccc12 [compound 236] |
|  |  |  | < 500 nM | < 500 nM | 500 to 5000 nM | FC(F)(F)c1cccc(-c2ccnc3[nH]ccc23)c1 [compound 113, 4-(3-Trifluoromethyl-phenyl)-1H-pyrrolo[2,3-b]pyridine] |
| 500 to 5000 nM | 500 to 5000 nM | 500 to 5000 nM |  |  |  | COc1ccc(-c2ccnc3[nH]ccc23)c(OC)c1 [compound 220] |
| < 500 nM | < 500 nM | < 500 nM |  |  |  | CCN(C)C(=O)c1cc(-c2ccnc3[nH]ccc23)c[nH]1 [compound 261] |
| > 4000 nM | 500 to 5000 nM | 500 to 5000 nM |  |  |  | Cc1ccc(C(N)=O)cc1Nc1c(Cl)cnc2[nH]ccc12 [compound 160] |
|  |  |  | < 500 nM | < 500 nM | < 500 nM | CC(C)(O)c1cccc(-c2ccnc3[nH]ccc23)n1 [compound 123, 2-(6-(1H-pyrrolo[2,3-b]pyridin-4-yl)pyridin-2-yl)propan-2-ol] |
| 500 to 5000 nM | > 5000 nM | 500 to 5000 nM |  |  |  | COc1cccc(-c2ccnc3[nH]ccc23)c1OC [compound 233] |
| > 4000 nM | < 500 nM | < 500 nM |  |  |  | CCCOC(=O)N1CC[C@H](Nc2c(Cl)cnc3[nH]ccc23)C1 [compound 167] |
| 500 to 5000 nM | 500 to 5000 nM | 500 to 5000 nM |  |  |  | CCNC(=O)c1cccc(-c2ccnc3[nH]ccc23)c1 [compound 255] |
|  |  |  | < 500 nM | < 500 nM | < 500 nM | CC(C)c1cccc(-c2ccnc3[nH]ccc23)n1 [compound 97, 4-(6-isopropylpyridin-2-yl)-1H-pyrrolo[2,3-b]pyridine] |
| > 4000 nM | 500 to 5000 nM | 500 to 5000 nM |  |  |  | O=C(CNc1nc(-c2ccnc3[nH]ccc23)nc2ccccc12)NCC(F)(F)F [compound 196] |
| < 500 nM | < 500 nM | < 500 nM |  |  |  | CCN(Cc1ccccn1)C(=O)c1ccc(-c2ccnc3[nH]ccc23)s1 [compound 318] |
|  |  |  | 500 to 5000 nM | 500 to 5000 nM | 500 to 5000 nM | C[C@H](Nc1ccnc(-c2ccnc3[nH]ccc23)n1)C(=O)NC1CC1 [compound 130] |
| < 500 nM | < 500 nM | < 500 nM |  |  |  | CCN(CC)C(=O)c1cc(-c2ccnc3[nH]ccc23)c[nH]1 [compound 262] |
|  |  |  | 500 to 5000 nM | 500 to 5000 nM | 500 to 5000 nM | CCOC(=O)c1cccc(-c2ccnc3[nH]ccc23)c1 [compound 46, 3-(1H-Pyrrolo[2,3-b]pyridin-4-yl)-benzoic acid ethyl ester] |
|  |  |  | < 500 nM | 500 to 5000 nM | < 500 nM | OCc1cccc(-c2ccnc3[nH]ccc23)c1 [compound 49, [3-(1H-Pyrrolo[2,3-b]pyridin-4-yl)-phenyl]-methanol] |
